Test results: publication PMC4615133, “Click chemistry armed enzyme-linked immunosorbent assay to measure palmitoylation by hedgehog acyltransferase” (Analytical Biochemistry, 2015)

Biological target: T1, hedgehog acyltransferase (Hhat) (Homo sapiens, UniProt Q5VTY9)
T1 construct: Hhat-3C-FLAG-His8 (cDNA base pairs 4 to 1479), DDM-solubilized P100 membrane fraction from HEK293a cells
Test: stopped click-ELISA kinetics, apparent Km at […] Shh([…])
Assay type: cell-based

T1 sequence (Q5VTY9 2-493): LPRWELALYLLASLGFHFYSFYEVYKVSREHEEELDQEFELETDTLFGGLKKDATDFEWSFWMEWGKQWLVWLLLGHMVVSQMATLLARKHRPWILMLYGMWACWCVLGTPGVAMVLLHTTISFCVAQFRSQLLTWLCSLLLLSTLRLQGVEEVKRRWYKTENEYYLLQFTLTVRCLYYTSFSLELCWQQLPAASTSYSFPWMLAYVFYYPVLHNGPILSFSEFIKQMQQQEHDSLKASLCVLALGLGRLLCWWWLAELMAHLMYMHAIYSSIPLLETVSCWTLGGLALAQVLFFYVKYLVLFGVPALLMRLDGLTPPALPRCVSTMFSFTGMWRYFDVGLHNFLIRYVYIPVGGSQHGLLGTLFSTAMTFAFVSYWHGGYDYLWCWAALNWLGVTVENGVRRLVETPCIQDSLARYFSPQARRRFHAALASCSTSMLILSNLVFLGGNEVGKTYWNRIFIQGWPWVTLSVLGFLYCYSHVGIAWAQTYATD

C#CCCCCCCCCCCCCC(=O)SCCNC(=O)CCNC(=O)[C@H](O)C(C)(C)COP(=O)(O)OP(=O)(O)OC[C@H]1O[C@@H](n2cnc3c(N)ncnc32)[C@H](O)[C@@H]1OP(=O)(O)O [YnC15-CoA]
Km: 0.15 ± 0.05 µM
